Test results: patent US10160772B2, “5,6-dihydro-4H-benzo[b]thieno-[2,3-d]azepine derivatives” (PULMOCIDE LIMITED, priority 2014, dated 2018)
Where two headings read alike, the source gives them in different places.

How the values were obtained:
Format in all cases: cell-based
[1] = Cell viability: resazurin assay in Hep2 cells; conditions: human, 5 days incubation
Procedure: Cell Viability: Resazurin Assay Hep2 cells were seeded in 384-well plates (10^3/well/50 μL; BD Falcon Ref 353962) in FBS DMEM (5%, containing 2 mM L-glutamine and 1 mM sodium pyruvate) one day before experimentation. Serum-free DMEM (50 μL) was added to test wells while for control wells the media was removed and sterile water (100 μL) was added. Test compounds (0.5 μL DMSO solution) were added to give a final DMSO concentration of 0.5%. Hep2 cells were incubated with each test compound for 5 days (37° C./5% CO2 in 5% FBS) and then resazurin stock solution (5 μL; 0.03%) was added to each well and the plate incubated further for a further 6 hrs (37° C./5% CO2). The fluorescence of each well at 545 nm (excitation) and 590 nm (emission) was determined using a multi-scanner (Clariostar: BMG Labtech). The percentage loss of cell viability was calculated for each well relative to vehicle (0.5% DMSO) treatment. Where appropriate, a CC50 value was calculated from the concentration-response curve generated from the concentration-response curve for each test compound.

RSV B Washington strain = assay: RSV B-induced CPE in Hep2 cells; conditions: human respiratory syncytial virus; for IC50: HEp-2, 144 h, read-out: RSV B CPE IC50
Procedure: (§1) Biological Testing: Experimental Methods Assessment of RSV Induced CPE in Hep2 Cells
(§2) Hep2 cells were seeded (10^3/well/50 μL) in 384-well plates (Catalogue number 353962, BD Falcon, Oxford, UK) in 5% serum free-DMEM containing 2 mM L-glutamine and 1 mM sodium pyruvate one day before infection. RSV A2 strain (#0709161v, NCPV, Public Health England, Wiltshire) or RSV B Washington strain (VR-1580, ATCC, Manassas, Va. 20108) virus solutions were prepared in serum free-DMEM with 2 mM L-glutamine and 1 mM sodium pyruvate, and then added (50 μL/well) to achieve a final virus concentration of 1 MOI for RSV A and 0.1MOI for RSV B. Simultaneously test compounds (0.5 μL DMSO solution) were added to 100 μL of Hep2 cell culture with virus solution to provide a final DMSO solution of 0.5%. Plates were incubated (37° C./5% CO2) for 5 days for studies using RSV A2 strain or 6 days for those using RSV B strain, and then resazurin sodium salt (5 μL of 0.03% solution; Sigma-Aldrich, Dorset, UK) was added to each well and the plate incubated for a further 6 hr (37° C. and 5% CO2). The fluorescence of each well [545 nm (excitation)/590 nm (emission)] was determined using a multi-scanner (Clariostar: BMG, Buckinghamshire, UK). The percentage inhibition for each well was calculated and the IC50, IC75 and IC90 values were calculated from the concentration-response curve generated for each test compound.

RSV A2 strain = assay: RSV A2-induced CPE in Hep2 cells; conditions: human respiratory syncytial virus; for IC50: HEp-2, 120 h, read-out: RSV A2 CPE IC50; for inhibition at 0.01 µg/mL: at 0.01 μg/mL (footnote 2)
Procedure: as §1, §2

[2] = Hep2 cells, RSV B Washington 0.1 MOI, 6 days, resazurin
[3] = HEp-2, Hep2 cells, at 1 μg/mL, read-out: RSV B CPE % Inhibition
[4] = Hep2 cells, RSV A2 1 MOI, 5 days, resazurin
[5] = HEp-2, Hep2 cells, read-out: RSV A2 CPE % Inhibition
[6] = HEp-2, Hep2 cells, at 0.1 μg/mL, read-out: RSV A2 CPE % Inhibition

## Cc1cccc2nc(-c3cc4c(s3)-c3ccccc3N(C(=O)c3ccc(NC(=O)c5cccnc5N5CC6(CCOCC6)C5)cc3)CC4)[nH]c12 [Example 1, N-(4-(2-(7-Methyl-1H-benzo[d]imidazol-2-yl)-5,6-dihydro-4H-benzo[b]thieno[2,3-d]azepine-6-carbonyl)phenyl)-2-(7-oxa-2-azaspiro[3.5]nonan-2-yl)nicotinamide]
[1]
  CC50 at 5 days: > 14700 nM
RSV B Washington strain
  IC50: 84.7 nM
RSV B Washington strain; HEp-2, read-out: RSV B CPE % Inhibition
  inhibition at 1 µg/mL: 100%
RSV A2 strain
  IC50: 0.21 nM
RSV A2 strain; HEp-2, read-out: RSV A2 CPE % Inhibition
  inhibition at 0.1 µg/mL: 100%

## CCc1cnc(N2CC3(CCOCC3)C2)c(C(=O)Nc2ccc(C(=O)N3CCc4cc(-c5nc6ccccc6[nH]5)sc4-c4ccccc43)cc2)c1 [Example 4, N-(4-(2-(1H-Benzo[d]imidazol-2-yl)-5,6-dihydro-4H-benzo[b]thieno[2,3-d]azepine-6-carbonyl)phenyl)-5-ethyl-2-(7-oxa-2-azaspiro[3,5]nonan-2-yl)nicotinamide]
[1]
  CC50 at 5 days: > 14400 nM
RSV B Washington strain; [2]
  IC50: 13.3 nM
RSV B Washington strain; [3]
  inhibition at 1 µg/mL: 100%
RSV A2 strain; [4]
  IC50: 0.66 nM
RSV A2 strain; [5]
  inhibition at 0.01 µg/mL: 86%

## O=C(Nc1ccc(C(=O)N2CCc3cc(-c4nc5cccc(F)c5[nH]4)sc3-c3ccccc32)cc1)c1cccnc1N1CC2(CCOCC2)C1 [Example 8, N-(4-(2-(7-fluoro-1H-benzo[d]imidazol-2-yl)-5,6-dihydro-4H-benzo[b]thieno[2,3-d]azepine-6-carbonyl)phenyl)-2-(7-oxa-2-azaspiro[3.5]nonan-2-yl)nicotinamide]
[1]
  CC50 at 5 days: > 14600 nM
RSV B Washington strain; [2]
  IC50: 26.8 nM
RSV B Washington strain; [3]
  inhibition at 1 µg/mL: 100%
RSV A2 strain; [4]
  IC50: 0.18 nM
RSV A2 strain; [6]
  inhibition at 0.1 µg/mL: 100%

## O=C(Nc1ccc(C(=O)N2CCc3cc(-c4nc5cccc(Cl)c5[nH]4)sc3-c3ccccc32)cc1)c1cccnc1N1CC2(CCOCC2)C1 [Example 9, N-(4-(2-(7-chloro-1H-benzo[d]imidazol-2-yl)-5,6-dihydro-4H-benzo[b]thieno[2,3-d]azepine-6-carbonyl)phenyl)-2-(7-oxa-2-azaspiro[3.5]nonan-2-yl)nicotinamide]
[1]
  CC50 at 5 days: > 14300 nM
RSV B Washington strain; [2]
  IC50: 44.1 nM
RSV B Washington strain; [3]
  inhibition at 1 µg/mL: 100%
RSV A2 strain; [4]
  IC50: 0.67 nM
RSV A2 strain; [6]
  inhibition at 0.1 µg/mL: 100%

## O=C(Nc1ccc(C(=O)N2CCc3cc(-c4nc5cccc(C(F)(F)F)c5[nH]4)sc3-c3ccccc32)cc1)c1cccnc1N1CC2(CCOCC2)C1 [Example 10, 2-(7-oxa-2-azaspiro[3.5]nonan-2-yl)-N-(4-(2-(7-(trifluoromethyl)-1H-benzo[d]imidazol-2-yl)-5,6-dihydro-4H-benzo[b]thieno[2,3-d]azepine-6-carbonyl)phenyl)nicotinamide]
[1]
  CC50 at 5 days: > 13600 nM
RSV B Washington strain; [2]
  IC50: 62 nM
RSV B Washington strain; [3]
  inhibition at 1 µg/mL: 100%
RSV A2 strain; [4]
  IC50: 0.14 nM
RSV A2 strain; [6]
  inhibition at 0.1 µg/mL: 100%

## Cc1ccc2nc(-c3cc4c(s3)-c3ccccc3N(C(=O)c3ccc(NC(=O)c5cccnc5N5CC6(CCOCC6)C5)cc3)CC4)[nH]c2c1 [Example 11, N-(4-(2-(6-methyl-1H-benzo[d]imidazol-2-yl)-5,6-dihydro-4H-benzo[b]thieno[2,3-d]azepine-6-carbonyl)phenyl)-2-(7-oxa-2-azaspiro[3.5]nonan-2-yl)nicotinamide]
[1]
  CC50 at 5 days: > 14700 nM
RSV B Washington strain; [2]
  IC50: 45.7 nM
RSV B Washington strain; [3]
  inhibition at 1 µg/mL: 100%
RSV A2 strain; [4]
  IC50: 0.28 nM
RSV A2 strain; [6]
  inhibition at 0.1 µg/mL: 100%

## Cc1cnc(N2CC3(CCOCC3)C2)c(C(=O)Nc2ccc(C(=O)N3CCc4cc(-c5nc6ccccc6[nH]5)sc4-c4ccccc43)cc2)c1 [Example 13, N-(4-(2-(1H-benzo[d]imidazol-2-yl)-5,6-dihydro-4H-benzo[b]thieno[2,3-d]azepine-6-carbonyl)phenyl)-5-methyl-2-(7-oxa-2-azaspiro[3.5]nonan-2-yl)nicotinamide]
[1]
  CC50 at 5 days: > 14700 nM
RSV B Washington strain; [2]
  IC50: 0.99 nM
RSV B Washington strain; [3]
  inhibition at 1 µg/mL: 100%
RSV A2 strain; [4]
  IC50: 0.085 nM
RSV A2 strain; [6]
  inhibition at 0.1 µg/mL: 100%

## Cc1cnc(N2CC3(CCOCC3)C2)c(C(=O)Nc2ccc(C(=O)N3CCc4cc(-c5nc6cccc(Cl)c6[nH]5)sc4-c4ccccc43)cc2)c1 [Example 15, N-(4-(2-(7-chloro-1H-benzo[d]imidazol-2-yl)-5,6-dihydro-4H-benzo[b]thieno[2,3-d]azepine-6-carbonyl)phenyl)-5-methyl-2-(7-oxa-2-azaspiro[3.5]nonan-2-yl)nicotinamide]
[1]
  CC50 at 5 days: > 14000 nM
RSV B Washington strain; [2]
  IC50: 83.3 nM
RSV B Washington strain; [3]
  inhibition at 1 µg/mL: 100%
RSV A2 strain; [4]
  IC50: 0.17 nM
RSV A2 strain; [6]
  inhibition at 0.1 µg/mL: 85%

## Cc1cnc(N2CC3(CCOCC3)C2)c(C(=O)Nc2ccc(C(=O)N3CCc4cc(-c5nc6cccc(C)c6[nH]5)sc4-c4ccccc43)cc2)c1 [Example 16, 5-methyl-N-(4-(2-(7-methyl-1H-benzo[d]imidazol-2-yl)-5,6-dihydro-4H-benzo[b]thieno[2,3-d]azepine-6-carbonyl)phenyl)-2-(7-oxa-2-azaspiro[3.5]nonan-2-yl)nicotinamide]
[1]
  CC50 at 5 days: > 14400 nM
RSV B Washington strain; [2]
  IC50: 16 nM
RSV B Washington strain; [3]
  inhibition at 1 µg/mL: 99%
RSV A2 strain; [4]
  IC50: 0.11 nM
RSV A2 strain; [6]
  inhibition at 0.1 µg/mL: 100%

## Cc1cnc(N2CC3(CCOCC3)C2)c(C(=O)Nc2ccc(C(=O)N3CCc4cc(-c5nc6cccc(C(F)(F)F)c6[nH]5)sc4-c4ccccc43)cc2)c1 [Example 17, 5-methyl-2-(7-oxa-2-azaspiro[3.5]nonan-2-yl)-N-(4-(2-(7-(trifluoromethyl)-1H-benzo[d]imidazol-2-yl)-5,6-dihydro-4H-benzo[b]thieno[2,3-d]azepine-6-carbonyl)phenyl)nicotinamide]
[1]
  CC50 at 5 days: > 13400 nM
RSV B Washington strain; [2]
  IC50: 13.2 nM
RSV B Washington strain; [3]
  inhibition at 1 µg/mL: 100%
RSV A2 strain; [4]
  IC50: 0.11 nM
RSV A2 strain; [6]
  inhibition at 0.1 µg/mL: 100%

## Cc1cnc(N2CC3(CCOCC3)C2)c(C(=O)Nc2ccc(C(=O)N3CCc4cc(-c5nc6cccc(C#N)c6[nH]5)sc4-c4ccccc43)cc2)c1 [Example 18, N-(4-(2-(7-cyano-1H-benzo[d]imidazol-2-yl)-5,6-dihydro-4H-benzo[b]thieno[2,3-d]azepine-6-carbonyl)phenyl)-5-methyl-2-(7-oxa-2-azaspiro[3.5]nonan-2-yl)nicotinamide]
[1]
  CC50 at 5 days: > 14200 nM
RSV B Washington strain; [2]
  IC50: 7.4 nM
RSV B Washington strain; [3]
  inhibition at 1 µg/mL: 100%
RSV A2 strain; [4]
  IC50: 0.28 nM
RSV A2 strain; [6]
  inhibition at 0.1 µg/mL: 100%

## Cc1cnc(N2CC3(CCOCC3)C2)c(C(=O)Nc2ccc(C(=O)N3CCc4cc(-c5nc6cc(F)cc(F)c6[nH]5)sc4-c4ccccc43)cc2)c1 [Example 19, N-(4-(2-(5,7-difluoro-1H-benzo[d]imidazol-2-yl)-5,6-dihydro-4H-benzo[b]thieno[2,3-d]azepine-6-carbonyl)phenyl)-5-methyl-2-(7-oxa-2-azaspiro[3.5]nonan-2-yl)nicotinamide]
[1]
  CC50 at 5 days: > 14000 nM
RSV B Washington strain; [2]
  IC50: 6.3 nM
RSV B Washington strain; [3]
  inhibition at 1 µg/mL: 100%
RSV A2 strain; [4]
  IC50: 0.96 nM
RSV A2 strain; [5]
  inhibition at 0.01 µg/mL: 88%

## Cc1ccc(C(=O)Nc2ccc(C(=O)N3CCc4cc(-c5nc6cccc(F)c6[nH]5)sc4-c4ccccc43)cc2)c(N2CC3(CCOCC3)C2)n1 [Example 20, N-(4-(2-(7-fluoro-1H-benzo[d]imidazol-2-yl)-5,6-dihydro-4H-benzo[b]thieno[2,3-d]azepine-6-carbonyl)phenyl)-6-methyl-2-(7-oxa-2-azaspiro[3.5]nonan-2-yl)nicotinamide]
[1]
  CC50 at 5 days: > 14300 nM
RSV B Washington strain; [2]
  IC50: 7.6 nM
RSV B Washington strain; [3]
  inhibition at 1 µg/mL: 100%
RSV A2 strain; [4]
  IC50: 0.094 nM
RSV A2 strain; [6]
  inhibition at 0.1 µg/mL: 100%

## COc1ccc(C(=O)Nc2ccc(C(=O)N3CCc4cc(-c5nc6ccccc6[nH]5)sc4-c4ccccc43)cc2)c(N2CC3(CCOCC3)C2)n1 [Example 21, N-(4-(2-(1H-benzo[d]imidazol-2-yl)-5,6-dihydro-4H-benzo[b]thieno[2,3-d]azepine-6-carbonyl)phenyl)-6-methoxy-2-(7-oxa-2-azaspiro[3.5]nonan-2-yl)nicotinamide]
[1]
  CC50 at 5 days: > 14400 nM
RSV B Washington strain; [2]
  IC50: 45.2 nM
RSV B Washington strain; [3]
  inhibition at 1 µg/mL: 100%
RSV A2 strain; [4]
  IC50: 0.21 nM
RSV A2 strain; [6]
  inhibition at 0.1 µg/mL: 100%
